Patent US11352358B2, “FXR agonist” (XUANZHU BIOPHARMACEUTICAL CO., LTD., priority 2017, dated 2022)

Key:
BSEP mRNA in HepG2 cells [1] = experiment: Relative expression of BSEP mRNA in HepG2 cells (qPCR), Experimental Example 1; type: cell-based, human; details: 24 hrs, expression under 3 μM of PX-104 as 100%
Method: compounds of the present invention (for their chemical names and preparation methods, see the preparation example of each compound); compound PX-104 and compound 30-70 (for their structures, see the background of the invention, and for their preparation methods, see patent applications WO2011020615A1 and WO2012087519A1).
(§1) Cells were digested with pancreatin and collected, and the concentration of the cells was determined; according to the counting result, the cells were resuspended to a density of 7.5×10^5 cells/mL; 2 mL of the cell suspension was inoculated in each well of a 6-well cell culture plate; and the culture plate was placed in an incubator and cultured under the conditions of 37° C. and 5% CO2 for 24 hrs.
The to-be-tested compounds were diluted to 0.3 mM and 3 mM with DMSO; and 5 μL of each stock solution diluted in the previous step was added to 5 mL of medium individually. The concentrations of the obtained working solutions were 0.3 μM and 3 μM respectively. In the control group, medium was prepared by using equivoluminal DMSO instead of the stock solutions; the cell culture plate was taken out from the incubator; the medium was removed from the cell culture plate, and the working solutions and the control medium were added correspondingly; and the culture plate was then put back into the incubator and cultured under the conditions of 37° C. and 5% CO2 for 24 hrs.
after treatment for 24 hrs, the cell culture plate was taken out, and the medium was removed from the plate; the cells were rinsed three times with pre-cooled (4° C.) PBS; and 200 μL of pancreatin (preheated to 37° C.) was added to each well, and the plate was then gently shaken such that the pancreatin could evenly cover the plate bottom. The culture plate was then placed back into the incubator and incubated until the cells were separated from the plate bottom. 1 mL of medium was added to terminate digestion. The solution was gently pipetted and blown for several times with a pipettor, all the substances in each well were pipetted into a 1.5 mL Rnase-free centrifuge tube and centrifuged at 200×g for 5 mins; supernatants were removed to collect cell samples.
Cell lysis: Fresh RNA lysis buffer was prepared (wherein 10 μL of 2-mercaptoethanol was added to 1 mL of lysis buffer); 600 μL of lysis buffer was added to each cell sample; the cells were lysed completely by 1 to 2 mins of vigorous vortexing; the cell lysates were centrifuged at 12,000×g for 5 mins; and the supernatants were transferred to 1.5 mL Rnase-free centrifuge tubes.
Extraction and purification of RNA: An equal amount of 70% ethanol was added to each cell lysate; the centrifuge tubes were then shaken vigorously, and the buffer was mixed sufficiently, so that the particulate precipitates that might be formed after the addition of ethanol were dispersed as even as possible; and adsorption columns were put into collecting tubes, and the mixtures were transferred to the adsorption columns. 700 μL was transferred at most each time; and the solutions were centrifuged at 12,000×g under room temperature for 15 secs. The solutions in the collecting tubes were discarded, and the adsorption columns were put into the collecting tubes once again; and all the remaining mixtures were then transferred into the adsorption columns. 700 μL of eluent I was added to the adsorption column; and the solutions were centrifuged at 12,000×g under room temperature for 15 secs. The adsorption columns were put into new collecting tubes; 500 μL of eluent II was added to the adsorption column; and the solutions were centrifuged at 12,000×g under room temperature for 15 secs. […]

[2] = Liver microsome metabolism stability, rat liver microsome; type: in vitro ADME, SD rat; details: 0.5 mg protein/mL, test sample 1 μM, β-NADPH
Method: (§2) Test samples: the homemade compounds 1, 2, 4 and 5 of the present invention (for their chemical names and preparation methods, see the preparation example for each compound).
(§3) a mixed liver microsomes of SD rat and human both purchased from XenoTech, with batch Nos.: 1410271 (SD rat) and 1410013 (human) respectively, wherein the microsomal protein concentrations both were 20 mg mL^−1;
(§4) experimental promoter β-NADPH purchased from Roche (batch No.: 524F0231); and a phosphate buffer solution (pH 7.4) made in the lab.
(§5) An appropriate amount of the test sample powder was weighed accurately, and dissolved in an appropriate amount of dimethyl sulfoxide (DMSO) to a concentration of 1 mM; and the solution was then diluted by 20 times with methanol to yield a 50 μM working solution.
(§6) (1) According to the proportions in table 3 “Composition of the incubation system for liver microsome metabolism stability experiment” above, for each compound, 6 mL of PBS (100 mM), 0.6 mL of MgCl2 solution (20 mM) and 3.66 mL of H2O were made into a mixed solution 1 for the incubation system (not containing the microsomes, the test sample and β-NADPH).
(§7) (2) Liver microsomes (20 mg protein/mL) were taken from a refrigerator (−80° C.), and were placed on a thermostatic water bath oscillator (37° C.) and pre-incubated for 3 mins.
(§8) (3) For each compound, 1.88 mL of the mixed solution 1 for the incubation system was added with 55 μL of microsomes to obtain a mixed solution 2 for the incubation system (not containing the test sample and β-NADPH).
(§9) (4) Sample group (containing the microsomes and D-NADPH): 616 μL of mixed solution 2 for the incubation system was added with 14 μL of the test sample working solution (with a concentration of 50 μM), and with 70 μL of R-NADPH working solution (10 mM). The resulted solution was well mixed, and the resulted solution was then duplicated. The time points of sampling were at 0 min, 5th min, 10th min, 20th min, 30th min and 60th min.
(§10) (5) Control group (containing the microsomes, and water instead of D-NADPH): 264 μL of mixed solution 2 for the incubation system was added with 6 μL of the test sample working solution (50 μM), and with 30 μL of water. The resulted solution was well mixed, and the resulted solution was then duplicated. The time points of sampling were at 0 min and 60th min.
(§11) (6) 50 μL of sample was taken from an incubating sample tube at each predetermined time point, added to a terminating sample tube (containing 300 μL of cold terminator), and vortexed; and the reaction was terminated.
(§12) (7) after 10 mins of vortexing, the solution was centrifuged for 5 mins (12,000 rpm).
(§13) (8) 100 μL of supernatant was taken and added with 100 μL of water, and the mixture solution was thoroughly vortexed; and the solution was then analyzed by LC-MS/MS.
(§14) Percentages of residual contents were calculated according to the following formula.

[3] = Liver microsome metabolism stability, human liver microsome; type: in vitro ADME; details: 0.5 mg protein/mL, test sample 1 μM, β-NADPH
Method: as §2, §3, §4, §5, §6, §7, §8, §9, §10, §11, §12, §13, §14

SHP mRNA in AML12 cells = experiment: Relative expression of SHP mRNA in AML12 cells, EC50 (Experimental Example 4); type: cell-based; details: Mus musculus, 24 hrs
Method: (§15) compounds of the present invention (for their chemical names and preparation methods, see the preparation example for each compound).
AML12 cells: mouse liver cells.
(§16) Control: compound 1-1B with a structure shown as follows, prepared according to a prior art method (for detailed information, see patent application WO2012087519A1).
as §1, with “of 7.5×10^4” for “of 7.5×10^5”, “cells/mL; 1” for “cells/mL; 2”, “a 12-well” for “a 6-well”
The compound were diluted to 1000, 200, 8, 1.6, 0.32, 0.128, 0.0256 and 0.00512 μM with DMSO. Compound solutions of different concentrations obtained in the previous step were further diluted by 1000 times with media to obtain working solutions, and a medium containing 0.1% of DMSO was adopted as a control group. The cell culture plate was taken out from the incubator, the medium was removed, and the working solutions and the control medium were added. The culture plate was placed back into the incubator and cultured under the conditions of 37° C. and 5% CO2 for 24 hrs.
after treatment for 24 hrs, the cell culture plate was taken out from the incubator, and the medium was removed from the plate; the cells were rinsed three times with pre-cooled (4° C.) PBS (phosphate buffer solution); and 200 μL of pancreatin (preheated to 37° C.) was added to each well, and the plate was then gently shaken such that the pancreatin could evenly cover the plate bottom. The culture plate was then placed back into the incubator and incubated until the cells were separated from the plate bottom. 1 mL of medium was added to terminate digestion. […]

[4] = system: CYP7A1 mRNA in HepG2 cells; experiment: Relative expression of CYP7A1 mRNA in HepG2 cells, IC50 (Experimental Example 3); type: cell-based; details: Homo sapiens, 24 hrs
Method: as §15
(§17) HepG2 cell: human liver cancer cell;
CYP7A1: cholesterol 7-alpha hydroxylase;
as §16, §1
(§18) The compounds were diluted to 3000, 1000, 200, 8, 1.6, 0.32, 0.0128, 0.00256 and 0.000512 μM with DMSO. Compound solutions of different concentrations obtained in the previous step were further diluted by 1,000 times with media to obtain working solutions, and a medium containing 0.1% of DMSO was adopted as a control group. The cell culture plate was taken out from the incubator, the medium was removed, and the working solutions and the control medium were added. The culture plate was placed back into the incubator and cultured under the conditions of 37° C. and 5% CO2 for 24 hrs. […]

SHP mRNA in HepG2 cells = experiment: Relative expression of SHP mRNA in HepG2 cells, EC50 (Experimental Example 3); type: cell-based; details: Homo sapiens, 24 hrs
Method: as §15, §17
SHP: small heterodimer partner;
as §16, §1, §18

BSEP mRNA in HepG2 cells [5] = experiment: Relative expression of BSEP mRNA in HepG2 cells, EC50 (Experimental Example 3); type: cell-based; details: Homo sapiens, 24 hrs
Method: as §15, §17
BSEP: bile salt export pump;
as §16, §1, §18

Row | Residual content (%) after 60 minutes of incubation [2] [%] | Residual content (%) after 60 minutes of incubation [3] [%] | SMILES | relative expression of BSEP mRNA in HepG2 cells (BSEP mRNA in HepG2 cells [1]; Table 2, 0.3 μM) [%] | relative expression of BSEP mRNA in HepG2 cells (BSEP mRNA in HepG2 cells [1]; Table 2, 3 μM) [%] | EC50 (SHP mRNA in AML12 cells) [nM] | IC50 [4] [nM] | EC50 (SHP mRNA in HepG2 cells) [nM] | EC50 (BSEP mRNA in HepG2 cells [5]) [nM] | relative expression of BSEP mRNA in HepG2 cells (BSEP mRNA in HepG2 cells [1]; Table 1, 0.3 μM) [%] | relative expression of BSEP mRNA in HepG2 cells (BSEP mRNA in HepG2 cells [1]; Table 1, 3 μM) [%]
1 | 49 | 31 | Cc1cc(C(=O)O)cc2sc(N3C[C@H]4C[C@@H]3C[C@@H]4OCc3c(-c4c(Cl)cccc4Cl)noc3C3CC3)nc12 (racemic) [Compound 5, 2-((1RS, 4RS, 5SR)-5-((5-cyclopropyl-3-(2,6-dichlorophenyl)isoxazol-4-yl)methoxy)-2-azabicyclo[2.2.1]heptan-2-yl)-4-methylbenzo[d]thiazole-6-carboxylic acid] | 103 | 123 |  |  |  |  |  | 
2 |  |  | O=C(O)c1cc(F)c2nc(N3[C@@H]4CC[C@H]3C[C@@H](OCc3c(-c5ccccc5OC(F)(F)F)noc3C3CC3)C4)sc2c1 [Compound 1-1B, reference compound] |  |  | 1.51 | 0.1 | 0.26 | 0.75 |  | 
3 |  |  | O=C(O)c1ccc(C2CC2c2ccc(OCc3c(-c4c(Cl)cccc4Cl)noc3C3CC3)cc2Cl)cc1 (stereo not drawn) [PX-104, reference compound] | 45 | 100 |  |  |  |  | 60 | 100
4 | 69 | 54 | O=C(O)c1cc(F)c2nc(N3C[C@H]4C[C@@H]3C[C@@H]4OCc3c(-c4c(Cl)cccc4Cl)noc3C3CC3)sc2c1 (racemic) [Compound 4, 2-((1RS, 4RS, 5SR)-5-((5-cyclopropyl-3-(2,6-dichlorophenyl)isoxazol-4-yl)methoxy)-2-azabicyclo[2.2.1]heptan-2-yl)-4-fluorobenzo[d]thiazole-6-carboxylic acid] | 97 | 96 |  |  |  |  |  | 
5 | 53 | 49 | COc1cc(C(=O)O)cc2sc(N3C[C@H]4C[C@@H]3C[C@@H]4OCc3c(-c4c(Cl)cccc4Cl)noc3C3CC3)nc12 (racemic) [Compound 1, 2-((RS, 4RS, 5SR)-5-((5-cyclopropyl-3-(2,6-dichlorophenyl)isoxazol-4-yl)methoxy)-2-azabicyclo[2.2.1]heptan-2-yl)-4-methoxybenzo[d]thiazole-6-carboxylic acid] | 121 | 102 |  |  |  |  |  | 
6 | 94 | 55 | O=C(O)c1ccc2nc(N3C[C@H]4C[C@@H]3C[C@@H]4OCc3c(-c4c(Cl)cccc4Cl)noc3C3CC3)sc2c1 (racemic) [Compound 2, 2-((1RS, 4RS, 5SR)-5-((5-cyclopropyl-3-(2,6-dichlorophenyl)isoxazol-4-yl)methoxy)-2-azabicyclo[2.2.1]heptan-2-yl)benzo[d]thiazole-6-carboxylic acid] |  |  |  |  |  |  | 145 | 179

Row | SMILES | Residual content (%) after 60 minutes of incubation [2] [%] | Residual content (%) after 60 minutes of incubation [3] [%] | relative expression of BSEP mRNA in HepG2 cells (BSEP mRNA in HepG2 cells [1]; Table 2, 0.3 μM) [%] | relative expression of BSEP mRNA in HepG2 cells (BSEP mRNA in HepG2 cells [1]; Table 2, 3 μM) [%] | EC50 (SHP mRNA in AML12 cells) [nM] | IC50 [4] [nM] | EC50 (SHP mRNA in HepG2 cells) [nM] | EC50 (BSEP mRNA in HepG2 cells [5]) [nM] | relative expression of BSEP mRNA in HepG2 cells (BSEP mRNA in HepG2 cells [1]; Table 1, 0.3 μM) [%] | relative expression of BSEP mRNA in HepG2 cells (BSEP mRNA in HepG2 cells [1]; Table 1, 3 μM) [%]
7 | O=C(O)c1ccc2nc(N3[C@@H]4CC[C@H]3C[C@@H](OCc3c(-c5c(Cl)cccc5Cl)noc3C3CC3)C4)sc2c1 [Compound 30-70, reference compound] |  | 20 |  |  |  |  |  |  | 105 | 146
